Results on three compounds are retold here after ChEMBL document CHEMBL1154454, “Tetrahydronaphthyl azole oxime ethers: the conformationally rigid analogues of oxiconazole as antibacterials” (2009).

Values after ≈ are worked out from the molar mass of the structure shown.

In experiment [1] the test system is Staphylococcus aureus. As to conditions: ATCC 25923.
Description: (§1) Antimicrobial activity against Staphylococcus aureus ATCC 25923 after 24 hrs by standard microbroth dilution assay
Experiment [2] deals with Escherichia coli. As to conditions: ATCC 9637.
Description: (§2) Antimicrobial activity against Escherichia coli ATCC 9637 after 24 hrs by standard microbroth dilution assay
Experiment [3] concerns Pseudomonas aeruginosa.
For experiment [4], the system named is Klebsiella pneumoniae. As to conditions: ATCC 27736.
Description: (§3) Antimicrobial activity against Klebsiella pneumoniae ATCC 27736 after 24 hrs by standard microbroth dilution assay
The test system of experiment [5] is Staphylococcus aureus. Description: microbe, parasite or virus in culture. The class given is functional. As to conditions: ATCC 25923, 24 h.
Description: as §1
The test system of experiment [6] is Escherichia coli. Description: microbe, parasite or virus in culture. The note with it: ATCC 9637, 24 h. The class given is functional.
Description: as §2
The subject of another experiment is Candida albicans. Description: Antimicrobial activity against Candida albicans after 48 hrs by standard microbroth dilution assay. The class given is functional.
Experiment [7] concerns Klebsiella pneumoniae. Nature of the experiment: microbe, parasite or virus in culture. The note with it: ATCC 27736, 24 h. The class given is functional.
Description: as §3
The next experiment has as its system Sporothrix schenckii. Nature of the experiment: Antimicrobial activity against Sporothrix schenckii after 72 hrs by standard microbroth dilution assay. The class given is functional.
For the next experiment, the system named is Cryptococcus neoformans. Description: Antimicrobial activity against Cryptococcus neoformans after 72 hrs by standard microbroth dilution assay. The class given is functional.
For experiment [8], the system named is Pseudomonas aeruginosa. Description: Antimicrobial activity against Pseudomonas aeruginosa ATCC BAA427 after 24 hrs by standard microbroth dilution assay. The class given is functional.
The subject of a further experiment is Aspergillus fumigatus. Nature of the experiment: Antimicrobial activity against Aspergillus fumigatus after 72 hrs by standard microbroth dilution assay. The class given is functional.
Another experiment deals with Candida parapsilosis. Nature of the experiment: Antimicrobial activity against Candida parapsilosis after 48 hrs by standard microbroth dilution assay. The class given is functional. As to conditions: Lodderomyces parapsilosis.
Experiment [9] relates to Trichophyton mentagrophytes. Description: Antimicrobial activity against Trichophyton mentagrophytes after 96 hrs by standard microbroth dilution assay. The class given is functional.

Turning to GENTAMICIN, the MIC in the experiment with Staphylococcus aureus [1] turned out to be 6.25 µg/mL; against Escherichia coli [2], 0.18 µg/mL; against Pseudomonas aeruginosa [3], 25 µg/mL; with Klebsiella pneumoniae [4], 0.78 µg/mL.

Take `Clc1cccc(CO/N=C2/c3cccc(Br)c3CCC2Cn2ccnc2)c1` (centres undefined): the MIC is 1.56 µg/mL (≈ 3.51 µM) against Staphylococcus aureus [5]; greater than 50 µg/mL in the experiment with Escherichia coli [6]; 50 µg/mL (≈ 112 µM) against Candida albicans; greater than 50 µg/mL against Klebsiella pneumoniae [7]; 50 µg/mL (≈ 112 µM) against Sporothrix schenckii; greater than 50 µg/mL with Cryptococcus neoformans. The MIC against Pseudomonas aeruginosa [8] is greater than 50 µg/mL; with Aspergillus fumigatus, greater than 50 µg/mL; with Candida parapsilosis, greater than 50 µg/mL; in experiment [9], 12.5 µg/mL (≈ 28.1 µM).

On to `Clc1cccc(CO/N=C2\c3cccc(Cl)c3CCC2Cn2cncn2)c1` (centres undefined), for which the MIC in the experiment on Staphylococcus aureus [5] is greater than 50 µg/mL; against Escherichia coli [6], 6.25 µg/mL (≈ 15.6 µM); with Candida albicans it was greater than 50 µg/mL; in the experiment with Klebsiella pneumoniae [7], greater than 50 µg/mL; with Sporothrix schenckii it was greater than 50 µg/mL; in the experiment with Cryptococcus neoformans, greater than 50 µg/mL. Also, the MIC (in the experiment on Pseudomonas aeruginosa [8]; against Aspergillus fumigatus; in the experiment with Candida parapsilosis; in experiment [9]) was greater than 50 µg/mL throughout.
